# Reference: ChEMBL document CHEMBL5390279, “Hydrolytic Activity of Mitochondrial F1FO-ATP Synthase as a Target for Myocardial Ischemia-Reperfusion Injury: Discovery and In Vitro and In Vivo Evaluation of Novel Inhibitors” (J Med Chem, 2023)
# pIC50: −log10 of the molar value. Activity calls are given as the source filed them. The calls are words filed in the database; no cut-off is given here.
# Legend:
# [1] = Inhibition of mouse heart mitochondrial F0F1-ATP synthase hydrolytic activity incubated for 10 mins by microplate reader analysis; assay type: mitochondria, Mitochondria
# Mus musculus [2] = species on record: Mus musculus; assay: Inhibition of mouse heart mitochondrial F0F1-ATP synthase hydrolytic activity at 200 uM incubated for 10 mins by microplate reader analysis; settings: Mitochondria
# Mus musculus [3] = species on record: Mus musculus; assay: Inhibition of mouse heart mitochondrial F0F1-ATP synthase hydrolytic activity at 200 uM incubated for 10 mins by microplate reader analysis relative to control; settings: Mitochondria
# H9c2 [4] = assay: Induction of mitochondrial membrane potential loss in rat H9c2 cells assessed as increase in fluorescence intensity at 100 uM in presence of rotenone by TMRM dye based assay; assay type: cell-based
# H9c2 [5] = assay: Induction of mitochondrial membrane potential loss in rat H9c2 cells assessed as increase in fluorescence intensity at 50 uM in presence of rotenone by TMRM dye based assay; assay type: cell-based
# H9c2 [6] = assay: Induction of mitochondrial membrane potential loss in rat H9c2 cells assessed as increase in fluorescence intensity at 10 uM in presence of rotenone by TMRM dye based assay; assay type: cell-based
# H9c2 [7] = assay: Cytotoxicity against rat H9c2 cells assessed as reduction in cell viability at 100 uM incubated for 24 hrs by MTT assay; assay type: toxicity, cell-based; settings: h9c2, 24 h
# H9c2 [8] = assay: Cytotoxicity against rat H9c2 cells assessed as reduction in cell viability at 50 uM incubated for 24 hrs by MTT assay; assay type: toxicity, cell-based; settings: h9c2, 24 h
# H9c2 [9] = assay: Induction of mitochondrial membrane potential loss in rat H9c2 cells assessed as increase in fluorescence intensity at 10 uM by TMRM dye based assay; assay type: cell-based
# H9c2 [10] = assay: Cytotoxicity against rat H9c2 cells assessed as reduction in cell survival at 100 uM incubated for 24 hrs by MTT assay; assay type: toxicity, cell-based; settings: h9c2, 24 h
# H9c2 [11] = assay: Cytotoxicity against rat H9c2 cells assessed as reduction in cell survival at 10 to 50 uM incubated for 24 hrs by MTT assay; assay type: toxicity, cell-based; settings: h9c2, 24 h, dose 10-50 µM
# Mus musculus [12] = species on record: Mus musculus; assay: Effect on mPTP opening in C57BL6 mouse heart mitochondria assessed as number of calcium pulses by measuring green-5N fluorescence intensity at 10 to 1000 uM by calcium retention capacity assay; settings: dose 10-1000 µM
# Mus musculus [13] = species on record: Mus musculus; assay: Effect on mPTP opening in C57BL6 mouse heart mitochondria assessed as number of calcium pulses by measuring green-5N fluorescence intensity at 10 to 1000 uM in presence of cyclosporin A by calcium retention capacity assay; settings: dose 10-1000 µM
# H9c2 [14] = assay: Induction of mitochondrial membrane potential loss in rat H9c2 cells assessed as increase in fluorescence intensity at 50 uM by TMRM dye based assay; assay type: cell-based
# H9c2 [15] = assay: Cytotoxicity against rat H9c2 cells assessed as reduction in cell survival at 50 uM incubated for 24 hrs by MTT assay; assay type: toxicity, cell-based; settings: h9c2, 24 h
# Mus musculus [16] = assay: Cardioprotective activity against cardiac ischemia/reperfusion induced C57BL/6J mouse model assessed as reduction in cardiac infarct size at 3.5 mg/kg, iv prior to 5 mins of myocardial ischemia and 2 hrs of reperfusion (Rvb= 45.4 +/- 1.8 %); assay type: functional; set-up: scale not given: the % may be the effect or the level left; settings: time 125 min, 2.083 h
# H9c2 [17] = assay: Induction of mitochondrial membrane potential loss in rat H9c2 cells assessed as increase in fluorescence intensity at 3 uM in presence of rotenone by TMRM dye based assay; assay type: cell-based
# H9c2 [18] = assay: Induction of mitochondrial membrane potential loss in rat H9c2 cells assessed as increase in fluorescence intensity at 3 uM by TMRM dye based assay; assay type: cell-based
# H9c2 [19] = assay: Induction of mitochondrial membrane potential loss in rat H9c2 cells assessed as increase in fluorescence intensity at 100 uM by TMRM dye based assay; assay type: cell-based
# Mus musculus [20] = assay: Cardioprotective activity against cardiac ischemia/reperfusion induced C57BL/6J mouse model assessed as reduction in cardiac infarct size at 5 mg/kg, iv prior to 5 mins of myocardial ischemia and 2 hrs of reperfusion (Rvb= 45.4 +/- 1.8 %); assay type: functional; set-up: scale not given: the % may be the effect or the level left; settings: time 125 min, 2.083 h
# H9c2 [21] = assay: Induction of mitochondrial membrane potential loss in rat H9c2 cells assessed as increase in fluorescence intensity at 50 to 100 uM in presence of rotenone by TMRM dye based assay; assay type: cell-based; settings: dose 50-100 µM
# H9c2 [22] = assay: Induction of mitochondrial membrane potential loss in rat H9c2 cells assessed as increase in fluorescence intensity at 0.1 to 100 uM by TMRM dye based assay; assay type: cell-based; settings: dose 0.1-100 µM
# H9c2 [23] = assay: Cytotoxicity against rat H9c2 cells assessed as reduction in cell survival at 0.1 to 100 uM incubated for 24 hrs by MTT assay; assay type: toxicity, cell-based; settings: h9c2, 24 h, dose 0.1-100 µM
# H9c2 [24] = assay: Cytotoxicity against rat H9c2 cells assessed as reduction in cell survival at 10 to 100 uM incubated for 24 hrs by MTT assay; assay type: toxicity, cell-based; settings: h9c2, 24 h, dose 10-100 µM
# Mus musculus [25] = assay: Cardioprotective activity against cardiac ischemia/reperfusion induced C57BL/6J mouse model assessed as reduction in cardiac infarct size at 5 mg/kg, iv measured after 5 mins of myocardial ischemia and 2 hrs of reperfusion (Rvb= 45 +/- 2.2 %); assay type: functional; set-up: scale not given: the % may be the effect or the level left; settings: time 125 min, 2.083 h
# Mus musculus [26] = assay: Cardioprotective activity against cardiac ischemia/reperfusion induced C57BL/6J mouse model assessed as reduction in cardiac infarct size at 5 mg/kg, iv measured after 25 mins of myocardial ischemia and 2 hrs of reperfusion (Rvb= 47.8 +/- 3.4 %); assay type: functional; set-up: scale not given: the % may be the effect or the level left; settings: time 145 min, 2.417 h
# Mus musculus [27] = assay: (§1) Cardioprotective activity against cardiac ischemia/reperfusion induced C57BL/6J mouse model assessed as increase in ATP level at 3.5 mg/kg, iv preincubated under ischemic condition for 30 mins followed by compound addition for 5 mins and subsequent incubation under reperfusion for 10 mins; assay type: functional, organism-based; settings: time 15.0 min
# Mus musculus [28] = assay: as §1, with “increase in Akt phosphorylation at 3.5” for “increase in ATP level at 3.5”, “10 mins by Western blot analysis” for “10 mins”; assay type: functional, organism-based; settings: time 15.0 min
# Mus musculus [29] = assay: as §1, with “increase in ERK1/2 phosphorylation at 3.5” for “increase in ATP level at 3.5”, “10 mins by Western blot analysis” for “10 mins”; assay type: functional, organism-based; settings: time 15.0 min
# Mus musculus [30] = assay: as §1, with “increase in GSK3beta phosphorylation at S9 fraction at 3.5” for “increase in ATP level at 3.5”, “10 mins by Western blot analysis” for “10 mins”; assay type: functional, organism-based; settings: time 15.0 min
# Mus musculus [31] = assay: as §1, with “assessed as effect on Akt level at” for “assessed as increase in ATP level at”, “10 mins by Western blot analysis” for “10 mins”; assay type: functional, organism-based; settings: time 15.0 min
# Mus musculus [32] = assay: as §1, with “assessed as effect on ERK1/2 level at” for “assessed as increase in ATP level at”, “10 mins by Western blot analysis” for “10 mins”; assay type: functional, organism-based; settings: time 15.0 min
# Mus musculus [33] = assay: as §1, with “assessed as effect on GSK3beta level at” for “assessed as increase in ATP level at”, “10 mins by Western blot analysis” for “10 mins”; assay type: functional, organism-based; settings: time 15.0 min
# Mus musculus [34] = assay: as §1, with “increase in Bcl-XL expression at 3.5” for “increase in ATP level at 3.5”, “10 mins by Western blot analysis” for “10 mins”; assay type: functional, organism-based; settings: time 15.0 min
# Mus musculus [35] = assay: as §1, with “increase in Bax expression at 3.5” for “increase in ATP level at 3.5”, “10 mins by Western blot analysis” for “10 mins”; assay type: functional, organism-based; settings: time 15.0 min
# Mus musculus [36] = assay: as §1, with “increase in cleaved caspase-3 expression at 3.5” for “increase in ATP level at 3.5”, “10 mins by Western blot analysis” for “10 mins”; assay type: functional, organism-based; settings: time 15.0 min
# H9c2 [37] = assay: Induction of mitochondrial membrane potential loss in rat H9c2 cells assessed as increase in fluorescence intensity at 10 to 100 uM in presence of rotenone by TMRM dye based assay; assay type: cell-based; settings: dose 10-100 µM
# H9c2 [38] = assay: Cytotoxicity against rat H9c2 cells assessed as reduction in cell viability at 50 to 100 uM incubated for 24 hrs by MTT assay; assay type: toxicity, cell-based; settings: h9c2, 24 h, dose 50-100 µM
# H9c2 [39] = assay: Cytotoxicity against rat H9c2 cells assessed as reduction in cell viability at 10 to 100 uM incubated for 24 hrs by MTT assay; assay type: toxicity, cell-based; settings: h9c2, 24 h, dose 10-100 µM
smiles,measurement,setting,value
COc1ccc(Cn2nc(-c3cccc(F)c3)c3cc(Nc4ccc(N5CCN(C)CC5)cc4)nc(N4CCOCC4)c32)cc1,pIC50,[1],2.70
same,inhibition,Mus musculus [2],Active
COc1ccc(Cn2nc(-c3ccccc3)c3cc(Cl)nc(N4CCNCC4)c32)cc1,pIC50,[1],3.82
same,inhibition,Mus musculus [3],50%
same,Activity,H9c2 [4],Active
same,Activity,H9c2 [5],Active
same,Activity,H9c2 [6],inactive
same,Activity,H9c2 [7],Toxic
same,Activity,H9c2 [8],Non-Toxic
same,Activity,H9c2 [9],inactive
same,Activity,H9c2 [10],Toxic
same,Activity,H9c2 [11],Non-Toxic
same,Activity,Mus musculus [12],inactive
same,Activity,Mus musculus [13],inactive
COc1ccc(Cn2nc(-c3ccccc3)c3cc(Nc4ccc(N5CCN(C)CC5)cc4)nc(N4CCN(C)CC4)c32)cc1,pIC50,[1],4.07
same,Activity,H9c2 [4],Active
same,Activity,H9c2 [5],Active
same,Activity,H9c2 [6],inactive
same,Activity,H9c2 [7],Toxic
same,Activity,H9c2 [14],inactive
same,Activity,H9c2 [9],inactive
same,Activity,H9c2 [10],Toxic
same,Activity,H9c2 [15],Non-Toxic
same,Activity,Mus musculus [12],inactive
same,Activity,Mus musculus [13],inactive
same,Activity,Mus musculus [16],34.8%
Oc1ccc(/C=C/c2c3c(cc4c2[C@H](c2cc(O)cc(O)c2)[C@@H](c2ccc(O)cc2)O4)O[C@H](c2ccc(O)cc2)[C@H]3c2cc(O)cc(O)c2)cc1,pIC50,[1],3.79
same,inhibition,Mus musculus [3],50%
Oc1ccc(/C=C/c2cc(O)cc3c2[C@H](c2cc(O)cc(O)c2)[C@@H](c2ccc(O)cc2)O3)cc1,pIC50,[1],3.12
Oc1ccc(/C=C/c2cc(O)cc(O)c2)cc1 [RESVERATROL],pIC50,[1],4.18
CC[C@@H]1/C=C/C=C/C[C@H](C)[C@@H](O)[C@](C)(O)C(=O)[C@H](C)[C@@H](O)[C@H](C)C(=O)[C@H](C)[C@@H](O)[C@H](C)/C=C/C(=O)O[C@H]2[C@@H](C)[C@@H](CC1)O[C@@]1(CC[C@@H](C)[C@@H](C[C@H](C)O)O1)[C@@H]2C,pIC50,[1],4.73
same,Activity,H9c2 [17],Active
same,Activity,H9c2 [18],inactive
same,Activity,H9c2 [6],inactive
same,Activity,H9c2 [9],inactive
COc1ccc(Cn2nc(-c3ccccc3)c3cc(Nc4ccc(N5CCN(C)CC5)cc4)nc(N4CCNCC4)c32)cc1,pIC50,[1],3.97
same,Activity,H9c2 [4],Active
same,Activity,H9c2 [5],Active
same,Activity,H9c2 [6],inactive
same,Activity,H9c2 [7],Toxic
same,Activity,H9c2 [14],inactive
same,Activity,H9c2 [9],inactive
same,Activity,H9c2 [15],Non-Toxic
same,Activity,Mus musculus [12],inactive
same,Activity,Mus musculus [13],inactive
same,Activity,Mus musculus [16],33.4%
O=C(Oc1cc(S(=O)(=O)c2ccccc2)ccc1[N+](=O)[O-])c1ccc(Cl)cc1,pIC50,[1],3.46
same,Activity,H9c2 [5],inactive
same,Activity,H9c2 [19],inactive
same,Activity,H9c2 [10],Non-Toxic
same,Activity,Mus musculus [20],39.6%
COc1cc2oc(-c3ccc(O)cc3O)c(C=O)c2c(O)c1CC=C(C)C,pIC50,[1],3.52
COc1ccc(Cn2nc(-c3ccccc3)c3cc(Nc4ccc(N5CCN(C)CC5)cc4)nc(N4CCOCC4)c32)cc1,pIC50,[1],4.01
same,inhibition,Mus musculus [2],Active
same,Activity,H9c2 [21],Active
same,Activity,H9c2 [22],inactive
same,Activity,H9c2 [23],Non-Toxic
same,Activity,H9c2 [24],Non-Toxic
same,Activity,Mus musculus [16],25.6%
same,Activity,Mus musculus [25],23.1%
same,Activity,Mus musculus [26],40.4%
same,Activity,Mus musculus [27],Active
same,Activity,Mus musculus [28],Active
same,Activity,Mus musculus [29],Active
same,Activity,Mus musculus [30],Active
same,Activity,Mus musculus [31],Active
same,Activity,Mus musculus [32],Active
same,Activity,Mus musculus [33],Active
same,Activity,Mus musculus [34],Active
same,Activity,Mus musculus [35],Active
same,Activity,Mus musculus [36],Active
COc1ccc(Cn2nc(-c3cccc(F)c3)c3cc(Nc4ccc(N5CCN(C)CC5)cc4)nc(N4CCN(C)CC4)c32)cc1,pIC50,[1],3.79
same,inhibition,Mus musculus [2],Active
same,Activity,H9c2 [37],Active
same,Activity,H9c2 [38],Toxic
same,Activity,H9c2 [39],Non-Toxic
O=c1c(O)c(-c2ccc(O)c(O)c2)oc2cc(O)cc(O)c12 [QUERCETIN],pIC50,[1],3.89
